The values that follow are results of earlier work, collected in patent publication US6306900A, “Enteric coated pharmaceutical compositions” (priority 1996, dated 2001).

The structures appear in SMILES notation.

The conditions of data set [1]: W. A. Lee et al.
The conditions of data set [2]: patients; origin not known.
The conditions of data set [3]: in words.

The term bioavailability denotes dose-corrected exposure relative to a reference, in per cent. In the case of `COc1c(C)c2c(c(O)c1C/C=C(\C)CCC(=O)OCCN1CCOCC1)C(=O)OC2` [MMF, mycophenolate mofetil], the bioavailability in data set [1] is 100%. Moreover, in data set [2], the side-effects result is given as “gastro-intestinal side effects”.

As for `COc1c(C)c2c(c(O)c1C/C=C(\C)CCC(=O)O)C(=O)OC2` [MPA, Mycophenolic acid], the bioavailability in data set [1] was 43%. For the same compound, in data set [3], the known activity entry is “anti-tumor, anti-viral, immunosuppressive, anti-psoriatic, and anti-inflammatory activity”.
